Measured values as given in PubChem BioAssay (NCI).
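Briefly, cells in 96-well plates were exposed to five compound concentrations for 48 h, and endpoints were estimated by linear interpolation. GI50 is the concentration that inhibits growth by half. TGI: total growth inhibition.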

Legend:
Test in all cases: NCI anticancer screen, dose series, 48 h
MDA-MB-231 breast = test system: MDA-MB-231 breast
MDA-MB-435 = test system: MDA-MB-435
SK-MEL-28 melanoma = test system: SK-MEL-28 melanoma
MCF7 breast = test system: MCF7 breast
OVCAR-4 ovarian = test system: OVCAR-4 ovarian
NCI-H23 lung = test system: NCI-H23 lung
SK-MEL-2 melanoma = test system: SK-MEL-2 melanoma
HCC-2998 colon = test system: HCC-2998 colon
U251 CNS = test system: U251 CNS
ACHN renal = test system: ACHN renal

Compound | TGI (MDA-MB-231 breast) [µM] | TGI (MDA-MB-435) [µM] | TGI (SK-MEL-28 melanoma) [µM] | TGI (MCF7 breast) [µM] | TGI (OVCAR-4 ovarian) [µM] | TGI (NCI-H23 lung) [µM] | TGI (SK-MEL-2 melanoma) [µM] | TGI (HCC-2998 colon) [µM] | TGI (U251 CNS) [µM] | TGI (ACHN renal) [µM] | GI50 (MDA-MB-231 breast) [µM] | GI50 (MDA-MB-435) [µM] | GI50 (SK-MEL-28 melanoma) [µM] | GI50 (MCF7 breast) [µM] | GI50 (OVCAR-4 ovarian) [µM] | GI50 (NCI-H23 lung) [µM] | GI50 (SK-MEL-2 melanoma) [µM] | GI50 (HCC-2998 colon) [µM] | GI50 (U251 CNS) [µM] | GI50 (ACHN renal) [µM]
CC(N)/C(N)=N/O (stereo not given) | > 100 | > 100 | > 100 | > 100 | > 100 | > 100 | > 100 | > 100 | > 100 | > 100 |  |  |  |  |  |  |  |  |  | 
CCCCCCc1cc2cc(-c3cn4ccsc4n3)c(=O)oc2cc1O | > 100 | > 27.5 | > 35.9 | > 100 | > 100 | > 100 | > 100 | > 100 | > 100 | > 100 |  |  |  |  |  |  |  |  |  | 
NC(Cc1ccccc1)C(=O)NC(Cc1ccccc1)NC(=O)C(Cc1c[nH]c2ccccc12)C(=O)O (stereo not given) | > 100 | > 100 | > 100 | > 100 | > 100 | > 100 | > 100 | > 100 | > 100 | > 100 |  |  |  |  |  |  |  |  |  | 
O=c1[nH]c(=O)n(C2COC(CO)C2O)cc1F (stereo not given) | > 100 | > 100 | > 100 | > 100 | > 100 | > 100 | > 100 | > 100 | > 100 | > 100 |  |  |  |  |  |  |  |  |  | 
O=C(O)C1C2c3ccccc3C(c3ccccc32)C1C(=O)NCC1CC1 (stereo not given) | > 100 | > 100 | > 100 | > 100 | > 100 | > 100 | > 100 | 55.1 | > 100 | > 100 |  |  |  |  |  |  |  |  |  | 
Cc1ccc(S[C@@H](C)[C@@](O)(CF)CN(Cc2ccccc2)C(=O)C(F)(F)F)cc1 | 54.3 | 40.4 | > 100 | 58.2 | 34.2 | 56.7 | 36.5 | 41.5 | 35.3 | 60.3 |  |  |  |  |  |  |  |  |  | 
CC(=O)CC1CCC(=O)/C=C/C(=O)OC(CC(C)=O)CCC(=O)/C=C/C(=O)O1 (stereo not given) | 15 | 32 | 20.5 | 27.6 | 25.4 | 36.4 | 19.8 | 39.4 | 42.8 | 11.2 |  |  |  |  |  |  |  |  |  | 
CCOC(=O)CCC(NC(=O)C(N)Cc1ccc(N(CCCl)CCCl)cc1)C(=O)OCC (stereo not given) | 3.94 | 3.75 | 2.18 | 9.5 | 1.38 | 1.68 | 6.05 | 2.23 | 7.41 | 0.692 |  |  |  |  |  |  |  |  |  | 
CCOC(=O)C(=[N+]=[N-])C(=O)CN1C(=O)c2ccccc2C1=O | > 100 | > 100 | > 100 | > 100 | > 100 | > 100 | > 100 | > 100 | > 100 | > 100 |  |  |  |  |  |  |  |  |  | 
CSC(=O)c1sc(SC)[n+](-c2ccccc2)c1O | 39 | 35.5 | 34.9 | 52.8 | 24.9 | 39.7 | 53.1 | 44.8 | 30.1 | > 100 |  |  |  |  |  |  |  |  |  | 
Cc1ccc(S(=O)(=O)N2C3C=CC(C3)[C@@H]2C(Cl)(Cl)Cl)cc1 (stereo not given in full) | 33.3 | > 88.4 | 57.2 | > 100 | > 77.1 | > 100 | 35.5 | 48.7 | 40.1 | 53.1 |  |  |  |  |  |  |  |  |  | 
C[C@]12[C@@H]3CC[C@H]1[C@@H](O)C(=O)N2CC3 | > 100 | > 100 | > 100 | > 100 | > 100 | > 100 | > 100 | > 100 | > 100 | > 100 |  |  |  |  |  |  |  |  |  | 
COc1ccccc1CC(=O)C(O)(C(F)(F)F)C(F)(F)F | > 100 | > 100 | > 100 | > 100 | > 100 | > 100 | > 100 | > 100 | > 100 | > 100 |  |  |  |  |  |  |  |  |  | 
O=C1OC(c2ccccc2)=N/C1=C\c1ccc([N+](=O)[O-])cc1 | > 100 | > 100 | > 100 | > 100 | > 100 | > 100 | 86 | > 100 | > 100 | 40.5 |  |  |  |  |  |  |  |  |  | 
C[N+]12C=CC=C1C(N1CCCC1)c1scc(-c3ccc(Br)cc3)c12 (stereo not given) | > 93.8 | 76.9 | > 60.5 | > 90.1 | > 100 | 32.4 | 17.3 | 39.9 | 24.7 | > 100 |  |  |  |  |  |  |  |  |  | 
N=c1oc2ccccc2cc1C(=O)NC12CC3CC(CC(C3)C1)C2 | 47.7 | > 83.6 | > 100 | 18.3 | > 86.8 | > 91.6 | 31.3 | 28.7 | 43.8 | 31.4 |  |  |  |  |  |  |  |  |  | 
O=C1NC2(CCN(CCc3ccccc3)CC2)Oc2ccccc21 | > 100 | > 100 | > 100 | > 100 | > 100 | > 100 | > 100 | > 100 | > 100 | > 100 |  |  |  |  |  |  |  |  |  | 

Compound | TGI (MDA-MB-231 breast) [µM] | TGI (MDA-MB-435) [µM] | TGI (SK-MEL-28 melanoma) [µM] | TGI (MCF7 breast) [µM] | TGI (OVCAR-4 ovarian) [µM] | TGI (NCI-H23 lung) [µM] | TGI (SK-MEL-2 melanoma) [µM] | TGI (HCC-2998 colon) [µM] | TGI (U251 CNS) [µM] | TGI (ACHN renal) [µM] | GI50 (MDA-MB-231 breast) [µM] | GI50 (MDA-MB-435) [µM] | GI50 (SK-MEL-28 melanoma) [µM] | GI50 (MCF7 breast) [µM] | GI50 (OVCAR-4 ovarian) [µM] | GI50 (NCI-H23 lung) [µM] | GI50 (SK-MEL-2 melanoma) [µM] | GI50 (HCC-2998 colon) [µM] | GI50 (U251 CNS) [µM] | GI50 (ACHN renal) [µM]
COc1ccc(C2c3cc4c(cc3OC3(OC)COC(=O)C23)OCO4)c(OC)c1 (stereo not given) | 99.5 | 5.47 | > 100 | 90.4 | > 100 | > 100 | > 100 | > 100 | > 100 | > 100 |  |  |  |  |  |  |  |  |  | 
CC(C)C(NC(=O)Oc1ccccc1)C(=O)NC1c2c(Br)sc(Br)c2C(=O)C1O (stereo not given) | 9.41 | 13.1 | 8.67 | > 25 | 6.41 | 8.41 | 17.7 | 7.68 | 9.53 | 10.2 |  |  |  |  |  |  |  |  |  | 
O=C1/C(=C\c2ccc(Cl)cc2Cl)Sc2scc(-c3ccc(O)c(O)c3)[n+]21 | 61.2 | 57.7 | 31.7 | 73.2 | 35.8 | 31.3 | 35.5 | 40.9 | 25.5 | 46.3 |  |  |  |  |  |  |  |  |  | 
CC1=C/C(=N\NC(N)=S)C(C(O)(C(F)(F)F)C(F)(F)F)C(C)(C)C1 (stereo not given) | > 10 | > 10 | > 10 | > 10 | > 10 | > 10 | > 10 | > 10 | > 10 | > 10 |  |  |  |  |  |  |  |  |  | 
COCOC1/C=C/CCCCC(=O)C(C)C#CC1 (stereo not given) | 15.6 | 18.3 | 25.4 | 14.8 | 24.4 | 16.3 | 21.2 | 20.2 | 28 | 19.9 |  |  |  |  |  |  |  |  |  | 
Cc1cn(C2OC(CO[Si](C)(C)C(C)(C)C)C(N(C)O[Si](C)(C)C(C)(C)C)C2[Se]c2ccccc2)c(=O)[nH]c1=O (stereo not given) | 43.8 | 21 | 22.2 | 25.4 | 8.58 | 24.6 | 34 | 0.491 | 24.5 | 18.3 |  |  |  |  |  |  |  |  |  | 
O=C1C(Br)=C(Br)C(=O)c2ccc(=O)ccc21 | 35.9 | 33.3 | 52 | 37.4 | 32.7 | 43.1 | > 75.1 | > 100 | 61.4 | 33.8 |  |  |  |  |  |  |  |  |  | 
CCCCCCOc1ccc(/C=N/Nc2cc(C)nc3ccc(Cl)cc23)cc1 | 3.24 | 3.15 | 3.18 | 3.2 | 3.18 | 3.54 | 3.24 | 3.45 | 3.43 | 3.08 | 1.67 | 1.71 | 1.76 | 1.47 | 1.75 | 1.88 | 1.72 | 1.93 | 1.9 | 1.71
O=C1c2cccc3cc([N+](=O)[O-])cc(c23)C(=O)N1Nc1ccc([N+](=O)[O-])cc1[N+](=O)[O-] | 42.9 | > 46.4 | 18 | > 31.6 | > 46.4 | 35.7 | > 100 | 29.2 | 29.3 | 7.06 |  |  |  |  |  |  |  |  |  | 
O=C1SC(SCc2ccccc2)=NC12CC2c1ccccc1 (stereo not given) | 43.5 | 59.3 | 41.5 | 40.1 | 51.7 | 42 | 40.1 | 28.8 | 39 | 38.2 |  |  |  |  |  |  |  |  |  | 
CC1=NN(c2nc(N)nc(COc3ccc(N)cc3)n2)C(C)(C)C1 | > 100 | > 100 | > 100 | > 100 | > 100 | > 100 | > 100 | > 100 | > 100 | > 100 |  |  |  |  |  |  |  |  |  | 
CC(C)(CN1CCCCC1)C(/C=C/c1ccc(Cl)cc1)=N\NC(=O)N/N=C(/C=C/c1ccc(Cl)cc1)C(C)(C)CN1CCCCC1 | 7.21 | 13.5 | 25.3 | > 35.3 | 15 | 10.3 | 22.8 | 16.3 | 12.6 | 15 |  |  |  |  |  |  |  |  |  | 
Cc1[nH]c(=O)nc2sc(=NC3CCCCC3)n(C3CCCCC3)c(=O)c12 | > 100 | > 100 | > 100 | > 100 | > 100 | > 100 | > 100 | > 100 | > 100 | > 100 |  |  |  |  |  |  |  |  |  | 
COc1ccc(C(C)NNC(=O)c2ccncc2)cc1OC (stereo not given) | > 100 | > 100 | > 100 | > 100 | > 100 | > 100 | > 100 | > 100 | > 100 | > 100 |  |  |  |  |  |  |  |  |  | 
COc1ccc(C(SCCO)(c2ccccc2)c2ccc(OC)cc2)cc1 | 25.4 | 20.5 | 34.1 | 18.5 | 49.1 | 38.1 | 25.8 | 15.2 | 14.8 | 29.6 |  |  |  |  |  |  |  |  |  | 
O=C(C(=O)n1ccc2ccccc21)n1ccc2ccccc21 | > 100 | > 100 | > 100 | > 100 | 78 | > 100 | > 100 | > 100 | > 100 | > 100 |  |  |  |  |  |  |  |  |  | 
